Where “and” joins values, the source holds several entries; their conditions need not be identical. Identical values can stand only once. Like-named read-outs stand apart in the source and are kept apart here.
Columns and labels:
[1] = system: intestinal phosphate absorption; test: Recovery of radiolabeled phosphate in gastrointestinal tract of rats at 4 h; assay type: in vivo, rat; conditions: LY3358966 10 mg/kg
Protocol: Male Sprague Dawley rats, 260–287 g for the first study and 274–362 g for the second study, were fasted for 4 h (the first 4 h of the light cycle) then dosed with placebo, a 50 or 150 mg/kg sevelamer HCl water dispersion, LY3358966 SDD (10 mg/kg API) dissolved in water, or a combination of LY3358966 SDD and sevelamer HCl. Fifteen minutes later, the animals were dosed with radiolabeled phosphate as described above. In the first study, the animals were given free access to food, then feces were collected at 6, 24, and 48 h post radiolabeled phosphate dose. In the second study, the animals were fasted an additional 4 h, then feces, stomach, small intestine, and large intestine were individually collected. The gastrointestinal tract tissues and feces were digested overnight at 37°C in 1 N NaOH, and the recovered radioactivity was determined.

NPT2b = target: T1, NPT2b (Rattus norvegicus, UniProt Q9JJ09); test: Acute phosphate uptake into plasma in rats; assay type: in vivo; conditions: 10 mg/kg
T1 construct: from tissue; host or cells: intestine of live Sprague Dawley rats, oral dosing
T1 sequence (Q9JJ09 1-695): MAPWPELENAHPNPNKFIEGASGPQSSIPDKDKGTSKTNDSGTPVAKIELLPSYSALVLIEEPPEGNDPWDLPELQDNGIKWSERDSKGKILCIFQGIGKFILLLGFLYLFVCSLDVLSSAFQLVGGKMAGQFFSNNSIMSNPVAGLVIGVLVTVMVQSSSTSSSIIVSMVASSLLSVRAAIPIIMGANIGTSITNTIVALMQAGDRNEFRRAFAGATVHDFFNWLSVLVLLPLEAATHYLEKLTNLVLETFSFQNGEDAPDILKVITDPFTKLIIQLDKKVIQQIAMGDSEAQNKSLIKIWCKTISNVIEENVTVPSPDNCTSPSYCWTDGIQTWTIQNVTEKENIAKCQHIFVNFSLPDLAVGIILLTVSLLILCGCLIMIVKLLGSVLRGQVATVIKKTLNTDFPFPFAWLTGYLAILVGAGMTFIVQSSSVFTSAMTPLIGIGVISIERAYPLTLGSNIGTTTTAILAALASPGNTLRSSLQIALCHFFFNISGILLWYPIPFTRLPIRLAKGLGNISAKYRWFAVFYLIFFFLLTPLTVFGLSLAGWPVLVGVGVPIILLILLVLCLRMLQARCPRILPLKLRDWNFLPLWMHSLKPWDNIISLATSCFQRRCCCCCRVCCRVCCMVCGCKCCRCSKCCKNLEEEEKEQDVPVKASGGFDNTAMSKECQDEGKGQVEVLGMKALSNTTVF
Protocol: A similar method was used to determine the ability of LY3358966 to inhibit acute phosphate uptake into plasma in Sprague Dawley rats (192–225 g, n = 14/group). In the rat studies, a 2 ml volume of the radioactive phosphate dosing solution (about 10 million dpm of H3 ^33PO4) was dosed to each animal. Due to the low inhibitory activity at 15 min after dosing the compound, the effect at 4 h was not determined.

[2] = Pharmacokinetic study in mice; assay type: in vivo, mouse; conditions: for bioavailability: po
Protocol: Male CD‐1 male mice were orally dosed with 1, 3, or 10 mg/kg API of LY3358966 SDD dissolved in water or were IV dosed with 1 mg/kg LY3358966 formulated in 25% dimethylacetamide, 15% ethanol, 10% propylene glycol, 25% 2‐pyrrolidone, and 25% water. Each dose group contained six animals. Three animals were bled at 0.25, 0.5, 1, 2, 4, 8, 12, and 24 h, with each animal being bled at alternate time points. Plasma drug levels were determined by HPLC/MS. The unbound fraction of LY3358966 in plasma was determined with equilibrium dialysis and LC‐MS/MS.

[3] = across all dose groups, from unbound fraction 0.005
[4] = male, CD-1, mouse, plasma, IV 1 mg/kg
[5] = male, CD-1, mouse, plasma, PO 1 mg/kg
[6] = male, CD-1, mouse, plasma, PO 3 mg/kg
[7] = male, CD-1, mouse, plasma, PO 10 mg/kg

- decrease of acute phosphate uptake into plasma, mean ± SEM of three studies (NPT2b; 15 min): 22% and 22 ± 3%
- decrease of phosphate absorption (acute uptake into plasma) (NPT2b; two additional single studies): 28.2% and 19.2%
- C max of unbound LY3358966 [2, 3]: < 1 nM
- plasma AUC of unbound LY3358966 [2, 3]: < 0.002 µM·h
- AUC [2, 4]: 0.323 µM·h
- half-life [2, 4]: 300 min
- Cmax [2, 5]: 25 nM
- Tmax [2, 5]: 24 min
- AUC ([2]; male, CD-1, mouse, plasma, PO 1 mg/kg, SDD dissolved in water): 0.039 µM·h
- Cmax [2, 6]: 50 nM
- Tmax [2, 6]: 24 min
- AUC ([2]; male, CD-1, mouse, plasma, PO 3 mg/kg, SDD dissolved in water): 0.096 µM·h
- Cmax [2, 7]: 83 nM
- Tmax [2, 7]: 24 min
- AUC ([2]; male, CD-1, mouse, plasma, PO 10 mg/kg, SDD dissolved in water): 0.284 µM·h
- bioavailability ([2]; male, CD-1, mouse, plasma, 1 mg/kg, PO 1 mg/kg, read-out: F (bioavailability)): 12%
- bioavailability ([2]; male, CD-1, mouse, plasma, 3 mg/kg, PO 3 mg/kg, read-out: F (bioavailability)): 10%
- bioavailability ([2]; male, CD-1, mouse, plasma, 10 mg/kg, PO 10 mg/kg, read-out: F (bioavailability)): 9%
- bioavailability ([2]; male, CD-1, mouse, plasma, 10 mg/kg, PO 1, 3 and 10 mg/kg, read-out: oral bioavailability F): 9 to 12%
SMILES: CC1(C)CN(C(=O)NCCCCO)CCN1Cc1cccc(C(=O)Nc2sc3c(c2C(=O)Nc2cc(F)c(CCc4ccc(C(=O)O)cc4)c(F)c2)CCCC3)c1 [LY3358966, 4‐[2‐[2,6‐difluoro‐4‐[[2‐[[3‐[[4‐(4‐hydroxybutylcarbamoyl)‐2,2‐dimethyl‐piperazin‐1‐yl]methyl]benzoyl]amino]‐4,5,6,7‐tetrahydrobenzothiophene‐3‐carbonyl]amino]phenyl]ethyl]benzoic acid]
- increase of 33P-phosphate recovery in the gastrointestinal tract over vehicle ([1]; 4 h): 6.34%
- 33P Recovered in G.I. Tract, Large Intestine (means ± SEM) ([1]; 4 hours): 13.75 ± 2.83%
- 33P Recovered in G.I. Tract, Small Intestine (means ± SEM) ([1]; 4 hours): 15.51 ± 2.37%
- 33P Recovered in G.I. Tract, Stomach (means ± SEM) ([1]; 4 hours): 1.83 ± 0.41%
- 33P Recovered in Total G.I. Tract (means ± SEM) ([1]; 4 hours, 10 mg/kg): 31.09% and 31.09 ± 1.38%
